# In EP0198522A1, “Heterocyclic herbicides” (SHELL INTERNATIONALE RESEARCH MAATSCHAPPIJ B.V., priority 1985, dated 1986):
# Tests used:
# Assay type in all cases: in vivo
# [1] = system: linseed, Linum usitatissisum; assay: Herbicidal activity, post-emergence soil drench test; conditions: 10 kg/ha soil drench; assessed visually thirteen days after drenching; 0-9 scale, 0 = growth as untreated control, 9 = death
# Experimental: (§1) To evaluate their herbicidal activity, compounds according to the invention were tested using as representative range of plants: maize, Zea mays (Mz); rice, Oryza sativa (R); barnyard grass, Echinochloa crusgalli (BG); oat, Avena sativa (0); linseed, Linum usitatissisum (L); mustard, Sinapsis alba (M); sugar beet, Beta vulgaris (SB) and soya bean, Glycine max (S).
# (§2) The tests fall into two categories, pre-emergence and post-emergence. […] The post-emergence tests involved two types of test, viz., soil drench and foliar spray tests. In the soil drench tests the soil in which the seedling plants of the above species were growing was drenched with a liquid formulation containing a compound of the invention, and in the foliar spray tests the seedling plants were sprayed with such a formulation.
# (§3) The soil used in the tests was a prepared horticultural loam.
# (§4) These acetone solutions were diluted with water and the resulting formulations applied at dosage levels corresponding to 5 kg or 1 kg of active material per hectare in a volume equivalent to 600 litres per hectare in the soil spray and foliar spray test, and at a dosage of level equivalent to 10 kilograms of active material per hectare in a volume equivalent to approximately 3,000 litres per hectare in the soil drench tests.
# (§5) In the pre-emexgence tests untreated sown soil and in the post-emergence tests untreated soil bearing seedling plants were used as controls.
# (§6) The herbicidal effects of the test compounds were assessed visually twelve days after spraying the foliage and the soil, and thirteen days after drenching the soil and were recorded on a 0-9 scale. A rating 0 indicates growth as untreated control, a rating 9 indicates death. An increase of 1 unit on the linear scale approximates to a 10% increase in the level of effect.
# [2] = system: barnyard grass, Echinochloa crusgalli; assay: as above; conditions: 10 kg/ha soil drench; assessed visually thirteen days after drenching; 0-9 scale, 0 = growth as untreated control, 9 = death
# Experimental: as §1, §2, §3, §4, §5, §6
# [3] = system: sugar beet, Beta vulgaris; assay: as above; conditions: 10 kg/ha soil drench; assessed visually thirteen days after drenching; 0-9 scale, 0 = growth as untreated control, 9 = death
# Experimental: as §1, §2, §3, §4, §5, §6
# soya bean, Glycine max [4] = assay: as above; conditions: 10 kg/ha soil drench; assessed visually thirteen days after drenching; 0-9 scale, 0 = growth as untreated control, 9 = death
# Experimental: as §1, §2, §3, §4, §5, §6
# maize, Zea mays [5] = assay: as above; conditions: 10 kg/ha soil drench; assessed visually thirteen days after drenching; 0-9 scale, 0 = growth as untreated control, 9 = death
# Experimental: as §1, §2, §3, §4, §5, §6
# mustard, Sinapsis alba [6] = assay: as above; conditions: 10 kg/ha soil drench; assessed visually thirteen days after drenching; 0-9 scale, 0 = growth as untreated control, 9 = death
# Experimental: as §1, §2, §3, §4, §5, §6
# oat, Avena sativa [7] = assay: as above; conditions: 10 kg/ha soil drench; assessed visually thirteen days after drenching; 0-9 scale, 0 = growth as untreated control, 9 = death
# Experimental: as §1, §2, §3, §4, §5, §6
# rice, Oryza sativa [8] = assay: as above; conditions: 10 kg/ha soil drench; assessed visually thirteen days after drenching; 0-9 scale, 0 = growth as untreated control, 9 = death
# Experimental: as §1, §2, §3, §4, §5, §6
# [9] = system: linseed, Linum usitatissisum; assay: Herbicidal activity, post-emergence foliar spray test; conditions: assessed visually twelve days after spraying, 0-9 scale, 0 = growth as untreated control, 9 = death
# Experimental: as §1, §2, §3, §4, §5, §6
# [10] = system: barnyard grass, Echinochloa crusgalli; assay: as above; conditions: assessed visually twelve days after spraying, 0-9 scale, 0 = growth as untreated control, 9 = death
# Experimental: as §1, §2, §3, §4, §5, §6
# [11] = system: sugar beet, Beta vulgaris; assay: as above; conditions: assessed visually twelve days after spraying, 0-9 scale, 0 = growth as untreated control, 9 = death
# Experimental: as §1, §2, §3, §4, §5, §6
# soya bean, Glycine max [12] = assay: as above; conditions: assessed visually twelve days after spraying, 0-9 scale, 0 = growth as untreated control, 9 = death
# Experimental: as §1, §2, §3, §4, §5, §6
# maize, Zea mays [13] = assay: as above; conditions: assessed visually twelve days after spraying, 0-9 scale, 0 = growth as untreated control, 9 = death
# Experimental: as §1, §2, §3, §4, §5, §6
# mustard, Sinapsis alba [14] = assay: as above; conditions: assessed visually twelve days after spraying, 0-9 scale, 0 = growth as untreated control, 9 = death
# Experimental: as §1, §2, §3, §4, §5, §6
# oat, Avena sativa [15] = assay: as above; conditions: assessed visually twelve days after spraying, 0-9 scale, 0 = growth as untreated control, 9 = death
# Experimental: as §1, §2, §3, §4, §5, §6
# rice, Oryza sativa [16] = assay: as above; conditions: assessed visually twelve days after spraying, 0-9 scale, 0 = growth as untreated control, 9 = death
# Experimental: as §1, §2, §3, §4, §5, §6
# [17] = system: linseed, Linum usitatissisum; assay: Herbicidal activity, pre-emergence test (soil spray); conditions: assessed visually twelve days after spraying, 0-9 scale, 0 = growth as untreated control, 9 = death
# Experimental: as §1, §2, §3, §4, §5, §6
# [18] = system: barnyard grass, Echinochloa crusgalli; assay: as above; conditions: assessed visually twelve days after spraying, 0-9 scale, 0 = growth as untreated control, 9 = death
# Experimental: as §1, §2, §3, §4, §5, §6
# [19] = system: sugar beet, Beta vulgaris; assay: as above; conditions: assessed visually twelve days after spraying, 0-9 scale, 0 = growth as untreated control, 9 = death
# Experimental: as §1, §2, §3, §4, §5, §6
# soya bean, Glycine max [20] = assay: as above; conditions: assessed visually twelve days after spraying, 0-9 scale, 0 = growth as untreated control, 9 = death
# Experimental: as §1, §2, §3, §4, §5, §6
# maize, Zea mays [21] = assay: as above; conditions: assessed visually twelve days after spraying, 0-9 scale, 0 = growth as untreated control, 9 = death
# Experimental: as §1, §2, §3, §4, §5, §6
# mustard, Sinapsis alba [22] = assay: as above; conditions: assessed visually twelve days after spraying, 0-9 scale, 0 = growth as untreated control, 9 = death
# Experimental: as §1, §2, §3, §4, §5, §6
# oat, Avena sativa [23] = assay: as above; conditions: assessed visually twelve days after spraying, 0-9 scale, 0 = growth as untreated control, 9 = death
# Experimental: as §1, §2, §3, §4, §5, §6
# rice, Oryza sativa [24] = assay: as above; conditions: assessed visually twelve days after spraying, 0-9 scale, 0 = growth as untreated control, 9 = death
# Experimental: as §1, §2, §3, §4, §5, §6
compound,measurement,setting,value
"CC(C)C1(C)NC(c2nc3cc4c(cc3cc2C(=O)O)OCO4)=NC1=O (stereo not shown) [Example 2, 2-(5-methyl-5-isopropyl-4-oxo-2-imidazolin-2-yl)-[1,3]-dioxolo[4,5-g] quinoline-3-carboxylic acid]",Soil drench 10/kg/ha L (herbicidal effect rating),[1],7
same,Soil drench 10/kg/ha BG (herbicidal effect rating),[2],9
same,Soil drench 10/kg/ha SB (herbicidal effect rating),[3],8
same,Soil drench 10/kg/ha S (herbicidal effect rating),"soya bean, Glycine max [4]",6
same,Soil drench 10/kg/ha Mz (herbicidal effect rating),"maize, Zea mays [5]",7
same,Soil drench 10/kg/ha M (herbicidal effect rating),"mustard, Sinapsis alba [6]",9
same,Soil drench 10/kg/ha O (herbicidal effect rating),"oat, Avena sativa [7]",7
same,Soil drench 10/kg/ha R (herbicidal effect rating),"rice, Oryza sativa [8]",7
same,Foliar spray L (herbicidal effect rating),[9]; Dosage 1 kg/ha,6
same,Foliar spray L (herbicidal effect rating),[9]; Dosage 5 kg/ha,6
same,Foliar spray BG (herbicidal effect rating),[10]; Dosage 1 kg/ha,7
same,Foliar spray BG (herbicidal effect rating),[10]; Dosage 5 kg/ha,7
same,Foliar spray SB (herbicidal effect rating),[11]; Dosage 1 kg/ha,7
same,Foliar spray SB (herbicidal effect rating),[11]; Dosage 5 kg/ha,7
same,Foliar spray S (herbicidal effect rating),"soya bean, Glycine max [12]; Dosage 1 kg/ha",2
same,Foliar spray S (herbicidal effect rating),"soya bean, Glycine max [12]; Dosage 5 kg/ha",4
same,Foliar spray Mz (herbicidal effect rating),"maize, Zea mays [13]; Dosage 1 kg/ha",6
same,Foliar spray Mz (herbicidal effect rating),"maize, Zea mays [13]; Dosage 5 kg/ha",7
same,Foliar spray M (herbicidal effect rating),"mustard, Sinapsis alba [14]; Dosage 1 kg/ha",7
same,Foliar spray M (herbicidal effect rating),"mustard, Sinapsis alba [14]; Dosage 5 kg/ha",7
same,Foliar spray O (herbicidal effect rating),"oat, Avena sativa [15]; Dosage 1 kg/ha",6
same,Foliar spray O (herbicidal effect rating),"oat, Avena sativa [15]; Dosage 5 kg/ha",7
same,Foliar spray R (herbicidal effect rating),"rice, Oryza sativa [16]; Dosage 1 kg/ha",6
same,Foliar spray R (herbicidal effect rating),"rice, Oryza sativa [16]; Dosage 5 kg/ha",6
same,Pre-emergence L (herbicidal effect rating),[17]; Dosage 1 kg/ha,8
same,Pre-emergence L (herbicidal effect rating),[17]; Dosage 5 kg/ha,9
same,Pre-emergence BG (herbicidal effect rating),[18]; Dosage 1 kg/ha,8
same,Pre-emergence BG (herbicidal effect rating),[18]; Dosage 5 kg/ha,8
same,Pre-emergence SB (herbicidal effect rating),[19]; Dosage 1 kg/ha,8
same,Pre-emergence SB (herbicidal effect rating),[19]; Dosage 5 kg/ha,8
same,Pre-emergence S (herbicidal effect rating),"soya bean, Glycine max [20]; Dosage 1 kg/ha",8
same,Pre-emergence S (herbicidal effect rating),"soya bean, Glycine max [20]; Dosage 5 kg/ha",8
same,Pre-emergence Mz (herbicidal effect rating),"maize, Zea mays [21]; Dosage 1 kg/ha",8
same,Pre-emergence Mz (herbicidal effect rating),"maize, Zea mays [21]; Dosage 5 kg/ha",8
same,Pre-emergence M (herbicidal effect rating),"mustard, Sinapsis alba [22]; Dosage 1 kg/ha",7
same,Pre-emergence M (herbicidal effect rating),"mustard, Sinapsis alba [22]; Dosage 5 kg/ha",7
same,Pre-emergence O (herbicidal effect rating),"oat, Avena sativa [23]; Dosage 1 kg/ha",7
same,Pre-emergence O (herbicidal effect rating),"oat, Avena sativa [23]; Dosage 5 kg/ha",7
same,Pre-emergence R (herbicidal effect rating),"rice, Oryza sativa [24]; Dosage 1 kg/ha",9
same,Pre-emergence R (herbicidal effect rating),"rice, Oryza sativa [24]; Dosage 5 kg/ha",9
